Assay results taken from PubChem BioAssay (NCI).
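Tested at 5 concentrations; 48 h exposure; 96-well plates; endpoints linearly interpolated, else capped at highest concentration. GI50: concentration for 50% inhibition of growth. TGI: total growth inhibition.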

Assays:
Assay in all cases: NCI tumour cell line growth inhibition, 48 h
A498 renal = test system: A498 renal
BT-549 breast = test system: BT-549 breast
HOP-92 NSCLC = test system: HOP-92 NSCLC
MDA-MB-435 = test system: MDA-MB-435
U251 CNS = test system: U251 CNS
UO-31 renal = test system: UO-31 renal
786-0 renal = test system: 786-0 renal
TK-10 renal = test system: TK-10 renal
T-47D breast = test system: T-47D breast
SN12C renal = test system: SN12C renal
NCI/ADR-RES ovarian = test system: NCI/ADR-RES ovarian
A549 NSCLC = test system: A549 NSCLC
SK-MEL-5 melanoma = test system: SK-MEL-5 melanoma
PC-3 prostate = test system: PC-3 prostate
ACHN renal = test system: ACHN renal
UACC-62 melanoma = test system: UACC-62 melanoma
HT29 colon = test system: HT29 colon
HOP-62 NSCLC = test system: HOP-62 NSCLC
RPMI-8226 leukemia = test system: RPMI-8226 leukemia
SF-268 CNS = test system: SF-268 CNS
EKVX NSCLC = test system: EKVX NSCLC
UACC-257 melanoma = test system: UACC-257 melanoma
RXF 393 renal = test system: RXF 393 renal
LOX IMVI melanoma = test system: LOX IMVI melanoma
IGROV1 ovarian = test system: IGROV1 ovarian
NCI-H522 lung = test system: NCI-H522 lung
HCC-2998 colon = test system: HCC-2998 colon
COLO 205 colon = test system: COLO 205 colon
SF-539 CNS = test system: SF-539 CNS
MDA-MB-231 breast = test system: MDA-MB-231 breast
HCT-116 colon = test system: HCT-116 colon
OVCAR-8 ovarian = test system: OVCAR-8 ovarian
MCF7 breast = test system: MCF7 breast
NCI-H23 lung = test system: NCI-H23 lung
NCI-H226 lung = test system: NCI-H226 lung
OVCAR-3 ovarian = test system: OVCAR-3 ovarian
SNB-19 CNS = test system: SNB-19 CNS
DU-145 prostate = test system: DU-145 prostate
K-562 leukemia = test system: K-562 leukemia
HL-60(TB) leukemia = test system: HL-60(TB) leukemia
KM12 colon = test system: KM12 colon
SK-MEL-2 melanoma = test system: SK-MEL-2 melanoma
HS 578T breast = test system: HS 578T breast
MOLT-4 leukemia = test system: MOLT-4 leukemia
OVCAR-5 ovarian = test system: OVCAR-5 ovarian
SF-295 CNS = test system: SF-295 CNS
MALME-3M melanoma = test system: MALME-3M melanoma
NCI-H460 lung = test system: NCI-H460 lung
SW-620 colon = test system: SW-620 colon
HCT-15 colon = test system: HCT-15 colon
M14 melanoma = test system: M14 melanoma
SK-OV-3 ovarian = test system: SK-OV-3 ovarian
CAKI-1 renal = test system: CAKI-1 renal

Question: What does the source list for `COc1ccc(-n2c3c(c4c(CN5CCOCC5)c(O)ccc42)CCc2ccccc2C3=O)cc1`?
Answer: GI50 (A498 renal): > 100 µM; TGI (A498 renal): > 100 µM; GI50 (BT-549 breast): 24.2 µM; TGI (BT-549 breast): > 100 µM; GI50 (HOP-92 NSCLC): 59.5 µM; TGI (HOP-92 NSCLC): > 100 µM; GI50 (MDA-MB-435): 12.1 µM; TGI (MDA-MB-435): 47.8 µM; GI50 (U251 CNS): 85.7 µM; TGI (U251 CNS): > 100 µM; GI50 (UO-31 renal): > 100 µM; TGI (UO-31 renal): > 100 µM; GI50 (786-0 renal): 75.8 µM; TGI (786-0 renal): > 100 µM; GI50 (TK-10 renal): > 100 µM; TGI (TK-10 renal): > 100 µM; GI50 (T-47D breast): > 100 µM; TGI (T-47D breast): > 100 µM; GI50 (SN12C renal): 43.3 µM; TGI (SN12C renal): > 100 µM; GI50 (NCI/ADR-RES ovarian): 25 µM; TGI (NCI/ADR-RES ovarian): 88.9 µM; GI50 (A549 NSCLC): > 100 µM; TGI (A549 NSCLC): > 100 µM; GI50 (SK-MEL-5 melanoma): 63.1 µM; TGI (SK-MEL-5 melanoma): > 100 µM; GI50 (PC-3 prostate): 16.9 µM; TGI (PC-3 prostate): > 100 µM; GI50 (ACHN renal): > 100 µM; TGI (ACHN renal): > 100 µM; GI50 (UACC-62 melanoma): > 100 µM; TGI (UACC-62 melanoma): > 100 µM; TGI (HT29 colon): 0.0934 µM; GI50 (HOP-62 NSCLC): > 100 µM; TGI (HOP-62 NSCLC): > 100 µM; GI50 (RPMI-8226 leukemia): 24.4 µM; TGI (RPMI-8226 leukemia): > 100 µM; GI50 (SF-268 CNS): > 100 µM; TGI (SF-268 CNS): > 100 µM; GI50 (EKVX NSCLC): > 100 µM; TGI (EKVX NSCLC): > 100 µM; GI50 (UACC-257 melanoma): > 100 µM; TGI (UACC-257 melanoma): > 100 µM; GI50 (RXF 393 renal): 14.8 µM; TGI (RXF 393 renal): > 100 µM; GI50 (LOX IMVI melanoma): 67.3 µM; TGI (LOX IMVI melanoma): > 100 µM; GI50 (IGROV1 ovarian): 37.6 µM; TGI (IGROV1 ovarian): > 100 µM; GI50 (NCI-H522 lung): 7.28 µM; TGI (NCI-H522 lung): 63.2 µM; GI50 (HCC-2998 colon): > 100 µM; TGI (HCC-2998 colon): > 100 µM; GI50 (COLO 205 colon): > 100 µM; TGI (COLO 205 colon): > 100 µM; GI50 (SF-539 CNS): 61 µM; TGI (SF-539 CNS): > 100 µM; GI50 (MDA-MB-231 breast): 52.1 µM; TGI (MDA-MB-231 breast): > 100 µM; GI50 (HCT-116 colon): > 100 µM; TGI (HCT-116 colon): > 100 µM; GI50 (OVCAR-8 ovarian): 64.4 µM; TGI (OVCAR-8 ovarian): > 100 µM; GI50 (MCF7 breast): > 100 µM; TGI (MCF7 breast): > 100 µM; GI50 (NCI-H23 lung): 24.9 µM; TGI (NCI-H23 lung): > 100 µM; GI50 (NCI-H226 lung): 54.5 µM; TGI (NCI-H226 lung): > 100 µM; GI50 (OVCAR-3 ovarian): 25.4 µM; TGI (OVCAR-3 ovarian): > 100 µM; GI50 (SNB-19 CNS): > 100 µM; TGI (SNB-19 CNS): > 100 µM; GI50 (DU-145 prostate): 67.9 µM; TGI (DU-145 prostate): > 100 µM; GI50 (K-562 leukemia): 17.8 µM; TGI (K-562 leukemia): > 100 µM; GI50 (HL-60(TB) leukemia): 22.3 µM; TGI (HL-60(TB) leukemia): > 100 µM; GI50 (KM12 colon): > 100 µM; TGI (KM12 colon): > 100 µM; GI50 (SK-MEL-2 melanoma): > 100 µM; TGI (SK-MEL-2 melanoma): > 100 µM; GI50 (HS 578T breast): > 100 µM; TGI (HS 578T breast): > 100 µM; GI50 (MOLT-4 leukemia): 45.9 µM; TGI (MOLT-4 leukemia): > 100 µM; GI50 (OVCAR-5 ovarian): 34.8 µM; TGI (OVCAR-5 ovarian): > 100 µM; GI50 (SF-295 CNS): > 100 µM; TGI (SF-295 CNS): > 100 µM; GI50 (MALME-3M melanoma): > 100 µM; TGI (MALME-3M melanoma): > 100 µM; GI50 (NCI-H460 lung): > 100 µM; TGI (NCI-H460 lung): > 100 µM; GI50 (SW-620 colon): 82.2 µM; TGI (SW-620 colon): > 100 µM; GI50 (HCT-15 colon): > 100 µM; TGI (HCT-15 colon): > 100 µM; GI50 (M14 melanoma): > 100 µM; TGI (M14 melanoma): > 100 µM; GI50 (SK-OV-3 ovarian): > 100 µM; TGI (SK-OV-3 ovarian): > 100 µM; GI50 (CAKI-1 renal): 37.8 µM; TGI (CAKI-1 renal): > 100 µM
